Assay results as given in patent publication US4943646A, “Gallium complexes and solvent extraction of gallium” (Monsanto Company, priority 1987, dated 1990).
Where two headings read alike, the source gives them in different places. Blank lines part the entries; values can stand above or below the compound they belong to.

Legend:
[1] = Extent of hydrolysis of hydroxamic acids after extraction, washing and stripping, by spectrophotographic analysis; details: for % DECOMPOSITION: additional, less careful determinations (untitled table); for % Decomposition (hydrolysis of hydroxamic acid): after extraction-wash-strip cycle, Table 4
[2] = Percentage of extractant pulled into the aqueous phase by Fe (III) in 0.25M H2SO4; type: physicochemical; details: Fe (III) in 0.25M H2SO4 (pH=0.3), 22 °C
Protocol: Tests were conducted on a series of hydroxamic acids to determine the percentages of the extractants pulled into an aqueous phase from an organic phase, by Fe (III) in 0.25M H2 SO4 (pH=0.3) at 22° C. The conditions represent a severe test of aqueous solubility since the pH favors FeA^++ formation, where A=hydroxamate anion. […] With regard to hydroxamic acids with n less than 6, a compound with n=4, i.e. N-methyl hexanohydroxamic acid, was approximately 35% pulled into the aqueous phase.

[3] = below 0.01M nitric acid; cited from earlier work
[4] = Organic solubility and viscosity of organic solutions (Table 13); type: physicochemical
Description: The organic solubilities and viscosity characteristics of N-alkylalkanohydroxamic acids, in comparison with N-H hydroxamic acids, are reported in Table 13.

[5] = Hydroxamic acid in the aqueous phase (Example 24); type: physicochemical; details: for HA in aqueous phase: Table 19
Protocol: A solution was prepared containing 30% by weight N-methyl naphthenohydroxamic acid in kerosene solvent containing 5% by volume isodecanol. A gallium sulfate solution was prepared by mixing 1 ml of an aqueous gallium sulfate solution, 90.8 grams/liter concentration, with 25 ml deionized water. The thus prepared solution was blended with 25 ml of the N-methyl naphtheno hydroxamic acid solution and 800 microliters of 10N NaOH was added from a microburette. […] The gallium had been extracted into the organic solution. The aqueous phase was replaced with an equal volume of 0.1M sodium acetate, which gave a pH 8.21. A 60 microliter amount of 10N NaOH was added, which gave a 9.3 pH after the phases were blended for 20 minutes. […] Additional increments of l0N NaOH were added and gallium concentrations were determined after blending, with results as reported in Table 19. All blending operations were conducted at about 60° C.
The results in Table 19 indicate that the stripping into the aqueous phase is almost negligible at pH below about 11, and in fact the 15 ppm values reported are at about the limit of the analytical method used. […] It appears that efficient extraction can be effected under alkaline conditions ranging from pH 7 to about 11. In the initial result at pH 11.91, a large amount of the hydroxamic acid was stripped into the aqueous phase. However, after an additional amount of isodecanol was added, the phases were easily separated and hydroxamic acid was not found in the aqueous phase. Thus, for pH over about 11.5 it is greatly advantageous to have a coordination solvent such as a long-chain alkanol or other water-insoluble alcohol present in substantial quantity, such as around 20% or more by volume of the organic solvents present. The coordinating solvent modifier assists in phase separation and in avoiding undue loss of the hydroxamic acid to the aqueous stripping solution. Of course stripping the gallium can be accomplished despite significant loss of the hydroxamic acid, and the hydroxamic acid can be recycled with the stripping solution or recovered therefrom.

[6] = Analysis of hydroxamic acid remaining after acid stripping (Example 11); type: physicochemical
Description: The organic solutions remaining after the acid stripping were washed with water and the petroleum ether was stripped under vacuum. […] Analysis of the unsubstituted naphthenohydroxamic acid indicated 91% decomposition. This example also indicates the usefulness of diluting the organic phase with a volatile, water immiscible organic solvent to provide more complete stripping of metal. After stripping the extractant is regenerated by distilling off the volatile solvent. Both organic liquids are recycled.

[7] = Stirred-beaker extraction, 2% H2SO4 wash and 30% H2SO4 strip of gallium from phosphate treater dust leachate (Examples 1-7); details: 5 minutes extraction

% DECOMPOSITION [1]: 38.6%
Compound: CCCCCCCCCCc1ccc(C(=O)N(C)O)cc1 [N-methyl 4-decylbenzo HA]

extractant pulled into the aqueous phase [2]: approximately 35%
Compound: CCCCCC(=O)N(C)O [N-methyl hexanohydroxamic acid]

VISCOSITY ORGANIC SOL. ([4]; Table 13): V. Low
Compound: N-methyl isostearohydroxamic acid
solubility in KEROSENE ([4]; Table 13): V. Soluble (V. Soluble = dissolves in molar quantities (>1) (V = very))
solubility in KEROSENE WITH ISODECANOL ([4]; Table 13): V. Soluble (V. Soluble = dissolves in molar quantities (>1) (V = very))

VISCOSITY ORGANIC SOL. [4]: Medium
HA in aqueous phase ([5]; b715 pH 10.57, b719 after adding 10 ml isodecanol): negative
HA in aqueous phase ([5]; pH 11.91): 0.65 M
test for hydroxamic acid in aqueous phase ([5]; pH 8.26): negative
extractant concentration after stripping (original 1M) ([6]; possibly mechanical losses and some dilution): 0.8744 M
% Decomposition (hydrolysis of hydroxamic acid) (extraction-wash-strip cycle): +0.14%
% DECOMPOSITION (used extractant solutions): 4.99%
Compound: N-methylnaphthenohydroxamic acid

% DECOMPOSITION [1]: 0.13%
Compound: N-methylneodecanohydroxamic acid

% DECOMPOSITION [1]: 4.6%
% Decomposition (hydrolysis of hydroxamic acid) [1]: +0.74%
Compound: N-n-propylnaphthenohydroxamic acid

Ga remaining in aqueous phase [7]: 3 ppm
Compound: neodecanohydroxamic acid

The next lines start with the compound.

Compound: CCCCCCCC(=O)NO [caprylhydroxamic acid]
hydrolysis [3]: hydrolysis occurs rather slowly

Compound: N-ethylnaphthenohydroxamic acid
% DECOMPOSITION [1]: 1.0%
% Decomposition (hydrolysis of hydroxamic acid) [1]: -0.53%

Compound: naphthenohydroxamic acid [reference compound]
VISCOSITY ORGANIC SOL. ([4]; Table 13): High
solubility in KEROSENE ([4]; Table 13): Low
solubility in KEROSENE WITH ISODECANOL ([4]; Table 13): Low
decomposition ([6]; after acid stripping): 91%
% DECOMPOSITION [1]: 42.5%
% Decomposition (hydrolysis of hydroxamic acid) [1]: 45%
% Decomposition (hydrolysis of hydroxamic acid) ([1]; listed as N--H naphthenohydroxamic acid): 45.0%
% Decomposition (hydrolysis of hydroxamic acid) ([1]; listed as unsubstituted hydroxamic acid): 45%
Ga remaining in aqueous phase [7]: 3.6 ppm

Compound: neotridecanohydroxamic acid
VISCOSITY ORGANIC SOL. ([4]; Table 13): High
solubility in KEROSENE ([4]; Table 13): Soluble
solubility in KEROSENE WITH ISODECANOL ([4]; Table 13): Soluble
